The text below walks through data of article PMC6274350, “Design, Synthesis, and Cytotoxicity of 5-Fluoro-2-methyl-6-(4-aryl-piperazin-1-yl) Benzoxazoles” (Molecules, 2016).

As a reminder, the viability is a read-out of living cells in per cent, often relative to untreated cells. For orientation: melting point means the temperature, or range, at which the solid turns liquid.

Each structure is given as a SMILES string.

Data set [1] is described as follows: CellTiter-Glo luminescent cell viability (cytotoxicity) assay on hepatocytes. The note with it: human, Liver cells, hepatocytes (HepaRG), 24 h, vs DMSO vehicle. The format is cell-based, human. The method, then:
(§1) The cytotoxicity of prepared benzoxazoles (7a–j) and intermediates (6a–j and 9) were measured by applying the CellTiter-Glo® luminescent cell proliferation assay (G755A, Promega, Madison, WI, USA). This method permits the determination of viable cells numbers in the culture based on quantitation of the ATP present, which denotes the presence of metabolically active cells. In vitro cytotoxicity analysis was overall performed following the protocol as described in “Guidance Document on Using in Vitro Data to Estimate in Vivo Starting Doses for Acute Toxicity Based on Recommendations” [18]. Human A-549 cells are human lung cancer epithelial cells, which were chosen as the tumor model, whereas the HepaRG™ cell line is a classic hepatic cell line that retains many characteristics of primary human hepatocytes. HepaRG™ cells are terminally differentiated.
(§2) Human cell cultures: Hepatocytes (HepaRG^TM cells) were obtained from Life Technologies, and were cultivated in William’s E Medium (Gibco, Life Technologies, Waltham, MA, USA) and supplemented with 1x GlutaMAX™ plus 1x HepaRG^TM General Purpose Medium Supplement in 25-cm^2 or 75-cm^2 flasks (TPP, Trasadingen, Switzerland) at 37 °C and 5% CO2. Lung cancer epithelial cells A-549 were propagated in Epilife Medium (Gibco, Life Technologies; MEPICF) and combined with CaCl2 and 1x-growth-supplement containing penicillin and streptomycin (Gibco, Life Technologies). For sub-culturing, cells were split at a ratio of 1:4 to 1:8. For cryopreservation, cells were frozen in 10% DMSO in liquid nitrogen.
(§3) Human cytotoxicity assay: Human hepatocytes or human lung carcinoma cells were seeded into sterile black clear-bottomed polystyrene Corning® CellBind® 96-well plates (Munich, Germany) at a density of 20,000 cells/well after calculating cell numbers from trypsinized samples in a classical Neubauer Improved hemocytometer (VWR, Munich, Germany). The cells were grown for 24 h at 37 °C in a 5% CO2 atmosphere in Epilife medium (keratinocytes) or William′s E medium (hepatocytes). After a 24-h recovery period, media were removed from the wells by aspiration. The cells were then immediately exposed to the respective test compounds or reference antibiotics (prepared in advance in 100 µL of the same media) for 24 h 37 °C with 5% CO2. The concentration tested ranged from 0.1 µM to 500 µM (0.1 µM, 1 µM, 10 µM, 50 µM, 100 µM, 250 µM, and 500 µM) and was formulated as a 100× concentrated stock each, resulting in a final constant DMSO concentration of 1% per 100-µL sample volume. Test series were each performed in triplicate, and additionally included a vehicle reference (DMSO only) plus another internal control for evaluating overall assay performance. Additionally, cells were visually examined under a light microscope for any morphological abnormalities relative to the untreated cells. Subsequently, cell viability, as an indicator of potential cytotoxicity, was measured by applying the CellTiter-Glo® luminescent cell proliferation assay (G755A, Promega, Madison, WI, USA). This method permits the determination of the number of viable cells in culture based on quantitation of the ATP present, which denotes the presence of metabolically active cells. To this end, 100 µL (equal to the volume of culture medium) of the kit-provided CellTiter-Glo® reagent (reconstituted by transferring the thawed CellTiter-Glo® buffer to the lyophilized enzyme and substrate mixture) was directly added to each well with a repetitive dispensing pipette. The contents were then mixed for 2 min at room temperature on an orbital minishaker (IKA® MS3 digital, Staufen, Germany) at 450 rpm to induce efficient cell lysis, and then further incubated for 10 min at room temperature for stabilization of the resultant luminescent signal. […]
In general terms: ATP-based viability assays read luminescence as a measure of living cells.

Data set [2] relates to HepaRG cells (liver cells, hepatocytes). The data set is described as above. The format is cell-based, human. The method, then: as §1, §2, §3
Data set [3] concerns A-549 lung carcinoma cells. Put plainly: CellTiter-Glo luminescent cell viability (cytotoxicity) assay on lung cancer cells. Type of data set: cell-based, human. The procedure:
as §1, §2, §3

Data set [4] is described as follows: Visible solubility / precipitation of test compounds in cell-culture media. The format is physicochemical. The procedure: Since the majority of test compound solutions with concentrations above 50 µM precipitated in cell-culture media, we performed cytotoxicity assays for healthy and cancer cells at 50 µM.
Setting [5] is: Homo sapiens, A549, Lung cancer cells (A-549), 24 h, vs DMSO vehicle.

`Cc1nc2cc(F)c(N3CCN(c4ccc(Cl)c(Cl)c4)CC3)cc2o1` [Compound 7j, 6-[4-(3,4-Dichloro-phenyl)-piperazin-1-yl]-5-fluoro-2-methyl-benzooxazole] registered a melting point of 147 to 148 °C. For the same compound, in data set [1], the viability at 24 h, 0.1 µM is 100%; the viability at 24 h, 1 µM turned out to be 90%; the viability at 24 h, 10 µM stood at 85%; the viability at 24 h, 50 µM amounted to 65%. For the same compound, in data set [1], the viability at 24 h, 100 µM was determined as 27%; the viability at 24 h, 250 µM was determined as 7%; the viability at 24 h, 500 µM worked out at 7%. Besides, the “Toxicity to healthy cells versus lung cancer cells” value in data set [2] (50 µM, HepaRG vs A-549) is given as “more toxic to healthy cells compared with lung cancer cells”. Also, in data set [3] (setting [5]), the viability at 0.1 µM came out at 98%, the viability at 1 µM is 94%, the viability at 10 µM turned out to be 81% and the viability at 50 µM came out at 70%. For the same compound, in data set [3] (setting [5]), the viability at 100 µM stood at 47% and the viability at 250 µM turned out to be 28%. For the same compound, the “Precipitation in cell-culture media” value in data set [4] (50 µM, no conclusion on cytotoxicity possible) is “precipitation problem”.
As for `O=[N+]([O-])c1cc(F)c(N2CCN(c3ccc(F)cc3)CC2)cc1O` [Compound 6d, 4-Fluoro-5-[4-(4-fluoro-phenyl)-piperazin-1-yl]-2-nitro-phenol], the melting point is 151 to 152 °C. In data set [1], the viability at 24 h, 0.1 µM was found to be 94%; the viability at 24 h, 1 µM was 87%; the viability at 24 h, 10 µM stood at 101%; the viability at 24 h, 50 µM was 57%. In addition, in data set [1], the viability at 24 h, 100 µM amounted to 62%; the viability at 24 h, 250 µM was 44%; the viability at 24 h, 500 µM was 13%. Also, the CT50 in data set [2] (hepatocytes (HepaRG), equal toxicity to both cell lines) is given as ~ 50 µM. Also, in data set [3] (A-549 lung cancer cells, equal toxicity to both cell lines), the CT50 is on record as ~ 50 µM. Also, in data set [3] (setting [5]), the viability at 0.1 µM was 103%, the viability at 1 µM was 111%, the viability at 10 µM is 78% and the viability at 50 µM stood at 58%. In data set [3] (setting [5]), the viability at 100 µM turned out to be 54% and the viability at 250 µM came out at 46%. The viability at 500 µM in data set [3] (Homo sapiens, A549, Lung cancer cells (A-549), 500 µM, 24 h, vs DMSO vehicle) was 34%. The “Solubility at test concentrations” value in data set [4] (cell-culture media, 0.1-500 µM) is “completely soluble at all concentrations”.
